What was measured:
AdeFGH (AdeG) = target: T1, AdeFGH (AdeG) (Acinetobacter baumannii, UniProt A0A090C131); experiment: antibiotic MIC in E. coli ΔacrAB expressing adeFGH (REMA); type: cell-based, Escherichia coli ΔacrAB; details: 40 µM EPI; chloramphenicol, oxacillin, SDS
T1 construct: adeFGH operon under acrA promoter in chromosome of E. coli ΔacrAB; tripartite RND pump; with Membrane fusion protein AdeF; Outer membrane efflux protein AdeH

AdeIJK (AdeJ) = target: T2, AdeIJK (AdeJ) (Acinetobacter baumannii, UniProt Q2FD94); experiment: antibiotic MIC in E. coli ΔacrAB expressing adeIJK (REMA); type: cell-based, Escherichia coli; details: 40 µM EPI; fusidic acid, novobiocin, erythromycin, SDS
T2 construct: adeIJK operon under acrA promoter in chromosome of E. coli ΔacrAB; tripartite RND pump; with Membrane fusion protein AdeI; Outer membrane efflux protein AdeK

AdeJ = target: T3, AdeJ (Acinetobacter baumannii, UniProt Q2FD94); experiment: antibiotic MIC and checkerboard in A. baumannii cells; type: cell-based; details: 40 µM EPI
T3 construct: native chromosomal AdeJ in A. baumannii cells (other RND pumps present); isogenic point mutants by allelic exchange; with Membrane fusion protein AdeI; Outer membrane efflux protein AdeK

AcrB (AcrAB-TolC) = target: T4, AcrB (AcrAB-TolC) (Escherichia coli, UniProt P31224); experiment: antibiotic boosting in E. coli cells; type: cell-based
T4 construct: full-length RND pump in E. coli cells; strain only in supplement; with Multidrug efflux pump subunit AcrA; Outer membrane protein TolC
T4 sequence (P0AE06 25-397): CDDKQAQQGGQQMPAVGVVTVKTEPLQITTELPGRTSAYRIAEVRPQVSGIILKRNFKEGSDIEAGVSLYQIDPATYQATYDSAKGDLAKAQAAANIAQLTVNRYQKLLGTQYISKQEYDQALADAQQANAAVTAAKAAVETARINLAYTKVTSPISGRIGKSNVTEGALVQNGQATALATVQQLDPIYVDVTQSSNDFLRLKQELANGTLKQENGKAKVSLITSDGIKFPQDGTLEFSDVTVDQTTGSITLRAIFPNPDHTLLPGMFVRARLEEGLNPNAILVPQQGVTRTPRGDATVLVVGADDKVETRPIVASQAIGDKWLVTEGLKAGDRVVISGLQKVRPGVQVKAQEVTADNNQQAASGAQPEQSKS
T4 sequence (P02930 23-493, further chain): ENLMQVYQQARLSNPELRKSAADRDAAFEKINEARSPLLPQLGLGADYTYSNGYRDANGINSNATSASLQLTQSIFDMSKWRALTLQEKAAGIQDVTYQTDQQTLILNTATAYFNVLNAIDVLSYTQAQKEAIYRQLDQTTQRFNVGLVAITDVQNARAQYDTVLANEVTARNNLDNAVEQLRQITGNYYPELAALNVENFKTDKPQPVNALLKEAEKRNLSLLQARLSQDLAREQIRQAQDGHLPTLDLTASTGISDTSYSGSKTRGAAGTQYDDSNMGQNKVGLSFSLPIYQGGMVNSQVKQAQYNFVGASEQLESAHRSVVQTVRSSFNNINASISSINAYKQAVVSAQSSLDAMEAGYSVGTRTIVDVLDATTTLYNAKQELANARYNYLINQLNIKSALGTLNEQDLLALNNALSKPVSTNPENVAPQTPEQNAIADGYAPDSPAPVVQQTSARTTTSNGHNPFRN
T4 sequence (P31224 whole entry): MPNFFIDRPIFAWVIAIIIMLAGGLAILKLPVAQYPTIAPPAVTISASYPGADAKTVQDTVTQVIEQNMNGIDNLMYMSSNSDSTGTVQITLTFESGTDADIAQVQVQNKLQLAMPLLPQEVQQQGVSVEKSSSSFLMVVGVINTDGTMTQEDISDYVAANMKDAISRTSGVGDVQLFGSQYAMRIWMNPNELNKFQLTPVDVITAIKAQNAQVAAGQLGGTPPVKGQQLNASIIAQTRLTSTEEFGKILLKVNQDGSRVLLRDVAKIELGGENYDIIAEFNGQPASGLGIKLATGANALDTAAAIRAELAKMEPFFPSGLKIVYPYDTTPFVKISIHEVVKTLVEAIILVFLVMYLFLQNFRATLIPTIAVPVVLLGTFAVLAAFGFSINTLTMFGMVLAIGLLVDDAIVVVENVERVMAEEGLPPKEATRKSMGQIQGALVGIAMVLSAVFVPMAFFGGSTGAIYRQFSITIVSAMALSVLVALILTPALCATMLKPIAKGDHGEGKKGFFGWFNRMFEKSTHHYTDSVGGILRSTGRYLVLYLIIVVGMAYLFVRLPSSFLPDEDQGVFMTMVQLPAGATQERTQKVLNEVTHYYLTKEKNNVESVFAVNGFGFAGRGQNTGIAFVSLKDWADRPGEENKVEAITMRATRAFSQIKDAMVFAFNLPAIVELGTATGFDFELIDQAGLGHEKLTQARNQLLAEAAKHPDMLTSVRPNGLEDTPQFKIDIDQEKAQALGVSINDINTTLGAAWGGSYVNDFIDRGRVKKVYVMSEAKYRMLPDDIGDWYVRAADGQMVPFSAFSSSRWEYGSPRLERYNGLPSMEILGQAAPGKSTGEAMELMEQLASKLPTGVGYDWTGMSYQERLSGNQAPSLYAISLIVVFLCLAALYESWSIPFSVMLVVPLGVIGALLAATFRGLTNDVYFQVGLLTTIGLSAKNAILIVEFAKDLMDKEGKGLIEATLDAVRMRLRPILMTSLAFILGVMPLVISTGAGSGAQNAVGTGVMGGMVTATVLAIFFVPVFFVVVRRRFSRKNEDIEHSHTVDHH

T1 sequence (A0A090C131 entry or part of it): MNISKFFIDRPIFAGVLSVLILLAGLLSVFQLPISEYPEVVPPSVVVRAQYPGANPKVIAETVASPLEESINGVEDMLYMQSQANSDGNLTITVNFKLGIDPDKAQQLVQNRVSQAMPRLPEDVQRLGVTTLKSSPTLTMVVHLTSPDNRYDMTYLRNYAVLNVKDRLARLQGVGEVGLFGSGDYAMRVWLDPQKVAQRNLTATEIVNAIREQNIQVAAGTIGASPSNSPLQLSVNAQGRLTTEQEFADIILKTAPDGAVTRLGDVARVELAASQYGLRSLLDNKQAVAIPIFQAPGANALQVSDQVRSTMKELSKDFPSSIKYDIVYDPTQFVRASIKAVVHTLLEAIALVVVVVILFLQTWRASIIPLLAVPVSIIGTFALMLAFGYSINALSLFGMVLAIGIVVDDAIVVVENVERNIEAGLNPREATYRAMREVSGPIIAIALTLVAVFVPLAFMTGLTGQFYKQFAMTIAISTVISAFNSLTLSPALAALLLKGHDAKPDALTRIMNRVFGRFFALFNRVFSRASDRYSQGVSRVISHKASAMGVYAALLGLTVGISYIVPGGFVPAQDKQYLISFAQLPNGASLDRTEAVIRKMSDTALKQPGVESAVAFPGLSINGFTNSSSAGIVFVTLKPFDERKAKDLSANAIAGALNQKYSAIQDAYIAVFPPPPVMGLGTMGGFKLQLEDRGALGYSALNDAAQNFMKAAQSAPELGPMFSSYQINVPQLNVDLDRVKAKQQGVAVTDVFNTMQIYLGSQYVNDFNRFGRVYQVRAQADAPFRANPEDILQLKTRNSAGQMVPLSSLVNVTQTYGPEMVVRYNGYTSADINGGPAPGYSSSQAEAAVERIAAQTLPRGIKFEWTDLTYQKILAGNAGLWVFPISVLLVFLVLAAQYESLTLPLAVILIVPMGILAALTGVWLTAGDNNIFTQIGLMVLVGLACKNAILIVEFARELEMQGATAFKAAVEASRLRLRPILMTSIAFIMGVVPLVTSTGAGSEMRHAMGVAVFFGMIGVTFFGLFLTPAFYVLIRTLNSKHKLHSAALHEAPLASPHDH
T1 sequence (A0A0N9Q906 entry or part of it, further chain): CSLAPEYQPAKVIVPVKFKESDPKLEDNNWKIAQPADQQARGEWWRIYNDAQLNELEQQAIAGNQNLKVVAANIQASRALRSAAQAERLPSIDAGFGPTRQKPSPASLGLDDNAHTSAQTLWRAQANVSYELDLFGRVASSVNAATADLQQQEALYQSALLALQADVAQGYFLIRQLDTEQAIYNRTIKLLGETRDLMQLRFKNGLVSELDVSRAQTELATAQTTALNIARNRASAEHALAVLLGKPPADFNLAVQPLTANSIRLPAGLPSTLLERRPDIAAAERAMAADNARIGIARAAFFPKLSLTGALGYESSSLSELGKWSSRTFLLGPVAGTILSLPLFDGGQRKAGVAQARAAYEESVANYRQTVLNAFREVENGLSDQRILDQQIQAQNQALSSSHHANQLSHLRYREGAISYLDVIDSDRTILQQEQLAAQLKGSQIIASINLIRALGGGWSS
T1 sequence (A0A0N9QP12 entry or part of it, further chain): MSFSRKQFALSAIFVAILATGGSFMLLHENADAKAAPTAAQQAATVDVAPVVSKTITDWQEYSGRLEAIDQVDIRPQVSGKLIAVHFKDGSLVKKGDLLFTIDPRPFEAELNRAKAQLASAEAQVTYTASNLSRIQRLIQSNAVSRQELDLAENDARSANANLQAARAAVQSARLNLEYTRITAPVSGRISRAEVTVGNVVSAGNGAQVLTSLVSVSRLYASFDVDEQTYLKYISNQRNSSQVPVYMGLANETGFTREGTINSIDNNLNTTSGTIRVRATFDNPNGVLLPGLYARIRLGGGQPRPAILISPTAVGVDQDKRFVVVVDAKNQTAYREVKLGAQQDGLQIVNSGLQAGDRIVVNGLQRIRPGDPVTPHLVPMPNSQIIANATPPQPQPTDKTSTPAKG

Compound	MIC (AdeFGH (AdeG))	MIC (AdeIJK (AdeJ))	MIC (AdeJ)	EC90 (AcrB (AcrAB-TolC))
NCc1cccc(-c2ccc3nc(N4CCNCC4)c(Cl)cc3c2)c1 [compound 1, BDM91531]	both BDM91531 and BDM91892 can inhibit the activity of AdeFGH and AdeIJK	both BDM91531 and BDM91892 can inhibit the activity of AdeFGH and AdeIJK	antibiotic boosting in A. baumannii by BDM91531, BDM91892 or PAβN is through AdeIJK inhibition	240 nM
NCCc1ccccc1C#Cc1cnc(N2CCNCC2)c(Cl)c1 [compound 11, BDM91892]	both BDM91531 and BDM91892 can inhibit the activity of AdeFGH and AdeIJK	both BDM91531 and BDM91892 can inhibit the activity of AdeFGH and AdeIJK	antibiotic boosting in A. baumannii by BDM91531, BDM91892 or PAβN is through AdeIJK inhibition	1500 nM

From paper PMC10594211, “Characterization of pyridylpiperazine-based efflux pump inhibitors for Acinetobacter baumannii” (JAC-Antimicrobial Resistance, 2023)
